Results published in US10695296B2, “Formulations, methods, kit, and dosage forms for improved stability of an active pharmaceutical ingredient” (Asana BioSciences, LLC, priority 2017, dated 2020).
Read-outs that look alike come from different tables or passages of the source.

Assay: PK characteristics in humans (plasma, LC/MS/MS)
Format: in vivo, human
Conditions: for Cmax / half-life / Tmax / AUC(0-t): human, plasma; for Cmax: read-out: Cmax; for Tmax: read-out: Tmax
Experimental: A pharmaceutical formulation of the disclosure comprising the active ingredient N-(3-(2-(6-amino-4-(trifluoromethyl)pyridin-3-yl)-4-morpholinopyrido[3,2-d]pyrimidin-6-yl)-2-fluorophenyl)-3-fluoropropane-1-sulfonamide was evaluated for safety/tolerability and preliminary efficacy in eligible human subjects with advanced solid tumors, and the pharmacokinetic (PK) profile of the active ingredient was investigated for each subject. Eligibility criteria for inclusion in this study included:
Fifteen eligible patients were enrolled in total daily dose levels ranging from 10-800 mg per day of the active ingredient, provided as 10-mg, 20-mg, 80-mg and 120-mg tablets for oral administration. Dose escalation is ongoing. All study medication supplies were provided by Asana BioSciences, LLC (Bridgewater, N.J.). The tablets were administered orally every 12-24 hours on an empty stomach (either 1 hour before or 2 hours after a meal or snack) with approximately 240 mL of water. On study days in which there was a single plasma PK sample taken, the subject was instructed to fast for at least 2 hours prior to collection of the PK sample. On study days with multiple plasma PK samples taken, the subject was instructed to fast overnight (at least 8 hours prior to study drug administration) and remain fasting for 2 hours after study drug administration. The date and time of the dose(s) taken prior to or on PK sampling days were collected by the study site or catalogued via a diary card provided to the subject.
An ultra performance liquid chromatographic method was used for the determination of the active ingredient in human EDTA K2 plasma. This method was validated over an analytical range of 0.5 to 500 ng/mL. Calibration standards (CS) and quality control (QC) samples at three or four levels of concentrations were prepared fresh from the appropriate working solutions which were stored at −20° C. The human EDTA K2 plasma used for the preparation of CS and QC samples was obtained from Bioreclamation (Westbury, Pa., USA) and analyzed to determine possible interference with the analyte or the internal standard, and no significant interference was observed. The following parameters were used to determine analyte levels in the plasma samples: […]

[1] = oral, 40 mg, Day 15, 40 mg, n=2, mean
[2] = oral, 40 mg, steady state, 40 QD mg, n=2, mean, cancer patients
[3] = oral, 80 mg, Day 1, 80 mg, n=2, mean
[4] = oral, 80 mg, Day 15, 80 mg, n=2, mean
[5] = oral, 80 mg, steady state, 80 QD mg, n=2, mean, cancer patients
[6] = oral, 240 mg, Day 1, 240 mg, n=2, mean
[7] = oral, 240 mg, Day 15, 240 mg, n=2, mean
[8] = oral, 240 mg, steady state, 240 QD mg, n=2, mean, cancer patients
[9] = oral, 400 mg, Day 1, 400 bid mg, individual subjects
[10] = oral, 400 mg, Day 1, 400 bid mg, mean
[11] = oral, 400 mg, Day 15, 400 QD mg, n=2, mean
[12] = oral, 400 mg, Day 15, 400 bid mg, n=1
[13] = oral, 400 mg, steady state, 400 BID mg, n=1, cancer patients
[14] = oral, 400 mg, steady state, 400 QD mg, n=2, mean, cancer patients

Nc1cc(C(F)(F)F)c(-c2nc(N3CCOCC3)c3nc(-c4cccc(NS(=O)(=O)CCCF)c4F)ccc3n2)cn1 [CMPD A, N-(3-(2-(6-amino-4-(trifluoromethyl)pyridin-3-yl)-4-morpholinopyrido[3,2-d]pyrimidin-6-yl)-2-fluorophenyl)-3-fluoropropane-1-sulfonamide]
Cmax [1]: 348 ng/mL
half-life (oral, 40 mg, Day 15, 40 mg, n=2, mean, read-out: T1/2 (converted)): 35.1 h
Tmax [1]: 4 h
AUC(0-t) (oral, 40 mg, steady state, 40 QD mg, n=2, mean, cancer patients, read-out: AUC0-24h): 5890 ng·h/mL
Cmax [2]: 348 ng/mL
Tmax [2]: 4 h
half-life (oral, 80 mg, Day 1, 80 mg, individual subject (other NC), read-out: T1/2 (converted)): 22.4 h
Cmax (oral, 80 mg, Day 1, 80 mg, individual subjects): 470 ng/mL
AUC(0-t) (oral, 80 mg, Day 1, 80 mg, n=2, mean, read-out: AUC0-24): 6050 ng·h/mL
Cmax [3]: 384 ng/mL
Tmax [3]: 14 h
half-life (oral, 80 mg, Day 15, 80 mg, individual subject (other NC), read-out: T1/2 (converted)): 48.7 h
AUC(0-t) (oral, 80 mg, Day 15, 80 mg, individual subjects, read-out: AUC0-24): 19000 ng·h/mL
Cmax (oral, 80 mg, Day 15, 80 mg, individual subjects): 931 ng/mL
AUC(0-t) (oral, 80 mg, Day 15, 80 mg, n=2, mean, read-out: AUC0-24): 20100 ng·h/mL
Cmax [4]: 1060 ng/mL
Tmax [4]: 14 h
AUC(0-t) (oral, 80 mg, steady state, 80 QD mg, n=2, mean, cancer patients, read-out: AUC0-24h): 20100 ng·h/mL
Cmax [5]: 1060 ng/mL
Tmax [5]: 14 h
AUC(0-t) (oral, 120 mg, Day 1, 120 mg, n=3, mean, read-out: AUC0-24): 6660 ng·h/mL
Cmax (oral, 120 mg, Day 1, 120 mg, n=3, mean): 509 ng/mL
half-life (oral, 120 mg, Day 1, 120 mg, n=3, mean, read-out: T1/2 (converted)): 24.9 h
Tmax (oral, 120 mg, Day 1, 120 mg, n=3): 4 h
AUC(0-t) (oral, 120 mg, Day 15, 120 mg, n=3, mean, read-out: AUC0-24): 10100 ng·h/mL
Cmax (oral, 120 mg, Day 15, 120 mg, n=3, mean): 728 ng/mL
half-life (oral, 120 mg, Day 15, 120 mg, n=3, mean, read-out: T1/2 (converted)): 24.1 h
Tmax (oral, 120 mg, Day 15, 120 mg, n=3): 4 h
Tmax (oral, 120 mg, steady state, 120 QD mg, n=3, cancer patients): 4 h
AUC(0-t) (oral, 120 mg, steady state, 120 QD mg, n=3, mean, cancer patients, read-out: AUC0-24h): 10100 ng·h/mL
Cmax (oral, 120 mg, steady state, 120 QD mg, n=3, mean, cancer patients): 728 ng/mL
AUC(0-t) (oral, 240 mg, Day 1, 240 mg, n=2, mean, read-out: AUC0-24): 6930 ng·h/mL
Cmax [6]: 520 ng/mL
half-life (oral, 240 mg, Day 1, 240 mg, n=2, mean, read-out: T1/2 (converted)): 17.5 h
Tmax [6]: 5 h
Tmax (oral, 240 mg, Day 15, 240 mg, individual subjects): 2 h
AUC(0-t) (oral, 240 mg, Day 15, 240 mg, n=2, mean, read-out: AUC0-24): 14900 ng·h/mL
Cmax [7]: 954 ng/mL
half-life (oral, 240 mg, Day 15, 240 mg, n=2, mean, read-out: T1/2 (converted)): 19.7 h
Tmax [7]: 2 h
AUC(0-t) (oral, 240 mg, steady state, 240 QD mg, n=2, mean, cancer patients, read-out: AUC0-24h): 14900 ng·h/mL
Cmax [8]: 954 ng/mL
Tmax [8]: 2 h
half-life (oral, 400 mg, Day 1, 400 QD mg, individual subjects, read-out: T1/2 (converted)): 15.2 h
AUC(0-t) (oral, 400 mg, Day 1, 400 QD mg, n=2, mean, read-out: AUC0-24): 15000 ng·h/mL
Cmax (oral, 400 mg, Day 1, 400 QD mg, n=2, mean): 1070 ng/mL
half-life (oral, 400 mg, Day 1, 400 QD mg, n=2, mean, read-out: T1/2 (converted)): 15.4 h
Tmax (oral, 400 mg, Day 1, 400 QD mg, n=2): 2 h
AUC(0-t) (oral, 400 mg, Day 1, 400 bid mg, individual subjects, read-out: AUC0-24): 32100 ng·h/mL
Cmax [9]: 2330 ng/mL
half-life (oral, 400 mg, Day 1, 400 bid mg, individual subjects, read-out: T1/2 (converted)): 22.5 h
Tmax [9]: 8 h
AUC(0-t) (oral, 400 mg, Day 1, 400 bid mg, mean, read-out: AUC0-24): 26300 ng·h/mL
Cmax [10]: 1880 ng/mL
half-life (oral, 400 mg, Day 1, 400 bid mg, mean, read-out: T1/2 (converted)): 18.6 h
Tmax [10]: 6 h
AUC(0-t) (oral, 400 mg, Day 15, 400 QD mg, individual subjects, read-out: AUC0-24): 25500 ng·h/mL
Cmax (oral, 400 mg, Day 15, 400 QD mg, individual subjects): 2770 ng/mL
half-life (oral, 400 mg, Day 15, 400 QD mg, individual subjects, read-out: T1/2 (converted)): 10.1 h
AUC(0-t) (oral, 400 mg, Day 15, 400 QD mg, n=2, mean, read-out: AUC0-24): 33400 ng·h/mL
Cmax [11]: 2850 ng/mL
half-life (oral, 400 mg, Day 15, 400 QD mg, n=2, mean, read-out: T1/2 (converted)): 10.9 h
Tmax [11]: 4.5 h
AUC(0-t) (oral, 400 mg, Day 15, 400 bid mg, n=1, read-out: AUC0-24): 110000 ng·h/mL
Cmax [12]: 5900 ng/mL
Tmax [12]: 2 h
AUC(0-t) (oral, 400 mg, steady state, 400 BID mg, n=1, cancer patients, read-out: AUC0-24h): 110000 ng·h/mL
Cmax [13]: 5990 ng/mL
Tmax [13]: 2 h
AUC(0-t) (oral, 400 mg, steady state, 400 QD mg, n=2, mean, cancer patients, read-out: AUC0-24h): 33400 ng·h/mL
Cmax [14]: 2850 ng/mL
Tmax [14]: 4.5 h
half-life (po, human subjects, oral tablets, read-out: Effective t½ (converted)): ~24 h
half-life (po, human subjects, oral tablets, read-out: t1/2 (rate of elimination)): 10 to 25 h
Cmin (steady state, 10 QD mg, n=1, cancer patients): 16.0 ng/mL
Cmin (steady state, 20 QD mg, n=1, cancer patients): 76.4 ng/mL
Cmin (steady state, 40 QD mg, n=2, mean, cancer patients): 167 ng/mL
Cmin (steady state, 80 QD mg, n=2, mean, cancer patients): 614 ng/mL
Cmin (steady state, 120 QD mg, n=3, mean, cancer patients): 239 ng/mL
Cmin (steady state, 240 QD mg, n=2, mean, cancer patients): 463 ng/mL
Cmin (steady state, 400 BID mg, n=1, cancer patients): 3718 ng/mL
Cmin (steady state, 400 QD mg, n=2, mean, cancer patients): 589 ng/mL
